{"source": "patent US4582822A", "about": "“Antibiotic A80190, pharmaceutical compositions containing same and method of use” (Eli Lilly and Company, priority 1984, dated 1986)", "key": {"A. macra": {"test_system": "A. macra", "experiment": "Resistance to antibiotics, sensitivity discs on seeded agar", "assay_type": "cell-based, Actinomadura macra", "procedure": "(§1) Resistance to antibiotics was measured by padding antibiotic sensitivity discs onto the surface of seeded ISP No. 2 agar plates.\n(§2) Table III lists the resistance of the strain to various antibiotics at the concentrations indicated and compares it to that of A. macra."}, "NRRL 15878": {"test_system": "NRRL 15878", "experiment": "Resistance to antibiotics, sensitivity discs on seeded agar", "assay_type": "cell-based, Actinomadura oligospora", "procedure": "as §1, §2"}}, "note": "Where a SMILES comes first, the peptide text is derived from it. Bridges are numbered along the chain shown (N, C = ends). [ ]: non-standard residue; d: D form. The star is where a group is joined. Ileψ(thiazoline)Cys = CC[C@H](C)[C@H](N)C1=N[C@H](C(=O)*)CS1; dOrn = NCCC[C@@H](N)C(=O)O"}
{"compound": "CC[C@H](C)[C@H](N)C1=N[C@H](C(=O)N[C@@H](CC(C)C)C(=O)N[C@H](CCC(=O)O)C(=O)N[C@H](C(=O)N[C@H]2CCCCNC(=O)[C@H](CC(N)=O)NC(=O)[C@@H](CC(=O)O)NC(=O)[C@H](Cc3cnc[nH]3)NC(=O)[C@@H](Cc3ccccc3)NC(=O)[C@H]([C@@H](C)CC)NC(=O)[C@@H](CCCN)NC2=O)[C@@H](C)CC)CS1", "note": "[Bacitracin] ({Ileψ(thiazoline)Cys}-L[dE]IK[dOrn]I[dF]H[dD]N; lactam 4-C)", "values": [{"measurement": "Resistance to Antibiotics", "setting": "A. macra; 10 units", "value": "-"}, {"measurement": "Resistance to Antibiotics", "setting": "NRRL 15878; 10 units", "value": "+"}]}
{"compound": "CC(=O)OCC1=C(C(=O)O)N2C(=O)[C@@H](NC(=O)Cc3cccs3)[C@H]2SC1", "note": "[Cephalothin]", "values": [{"measurement": "Resistance to Antibiotics", "setting": "A. macra; 30 μg", "value": "+"}]}
{"compound": "CC1(C)S[C@@H]2[C@H](NC(=O)Cc3ccccc3)C(=O)N2[C@H]1C(=O)O", "note": "[Pencillin G]", "values": [{"measurement": "Resistance to Antibiotics", "setting": "A. macra; 10 units", "value": "+"}, {"measurement": "Resistance to Antibiotics", "setting": "NRRL 15878; 10 units", "value": "+"}]}
{"compound": "CO[C@H]1/C=C/O[C@@]2(C)Oc3c(C)c(O)c4c(O)c(c(/C=N/N5CCN(C)CC5)c(O)c4c3C2=O)NC(=O)/C(C)=C\\C=C\\[C@H](C)[C@H](O)[C@@H](C)[C@@H](O)[C@@H](C)[C@H](OC(C)=O)[C@@H]1C", "note": "[Rifampin]", "values": [{"measurement": "Resistance to Antibiotics", "setting": "A. macra; 5 μg", "value": "+"}]}
{"compound": "CN[C@@H]1[C@H](O[C@H]2[C@H](O[C@H]3[C@H](O)[C@@H](O)[C@H](N=C(N)N)[C@@H](O)[C@@H]3N=C(N)N)O[C@@H](C)[C@]2(O)C=O)O[C@@H](CO)[C@H](O)[C@H]1O", "note": "[Streptocmycin]", "values": [{"measurement": "Resistance to Antibiotics", "setting": "A. macra; 10 μg", "value": "+"}, {"measurement": "Resistance to Antibiotics", "setting": "NRRL 15878; 10 μg", "value": "-"}]}
{"compound": "CN[C@H](CC(C)C)C(=O)N[C@H]1C(=O)N[C@@H](CC(N)=O)C(=O)N[C@H]2C(=O)N[C@H]3C(=O)N[C@H](C(=O)N[C@H](C(=O)O)c4cc(O)cc(O)c4-c4cc3ccc4O)[C@H](O)c3ccc(c(Cl)c3)Oc3cc2cc(c3O[C@@H]2O[C@H](CO)[C@@H](O)[C@H](O)[C@H]2O[C@H]2C[C@](C)(N)[C@H](O)[C@H](C)O2)Oc2ccc(cc2Cl)[C@H]1O", "note": "[Vancomycin]", "values": [{"measurement": "Resistance to Antibiotics", "setting": "A. macra; 30 μg", "value": "-"}, {"measurement": "Resistance to Antibiotics", "setting": "NRRL 15878; 30 μg", "value": "-"}]}
{"compound": "Gentamicin", "values": [{"measurement": "Resistance to Antibiotics", "setting": "A. macra; 10 μg", "value": "-"}, {"measurement": "Resistance to Antibiotics", "setting": "NRRL 15878; 10 μg", "value": "-"}]}
{"compound": "Tetracycline", "values": [{"measurement": "Resistance to Antibiotics", "setting": "A. macra; 30 μg", "value": "-"}, {"measurement": "Resistance to Antibiotics", "setting": "NRRL 15878; 30 μg", "value": "-"}]}
